Target: T1, 5-lipoxygenase (5-LO) (Homo sapiens, UniProt P09917)
T1 construct: gene ALOX5
T1 sequence (P09917 1-674): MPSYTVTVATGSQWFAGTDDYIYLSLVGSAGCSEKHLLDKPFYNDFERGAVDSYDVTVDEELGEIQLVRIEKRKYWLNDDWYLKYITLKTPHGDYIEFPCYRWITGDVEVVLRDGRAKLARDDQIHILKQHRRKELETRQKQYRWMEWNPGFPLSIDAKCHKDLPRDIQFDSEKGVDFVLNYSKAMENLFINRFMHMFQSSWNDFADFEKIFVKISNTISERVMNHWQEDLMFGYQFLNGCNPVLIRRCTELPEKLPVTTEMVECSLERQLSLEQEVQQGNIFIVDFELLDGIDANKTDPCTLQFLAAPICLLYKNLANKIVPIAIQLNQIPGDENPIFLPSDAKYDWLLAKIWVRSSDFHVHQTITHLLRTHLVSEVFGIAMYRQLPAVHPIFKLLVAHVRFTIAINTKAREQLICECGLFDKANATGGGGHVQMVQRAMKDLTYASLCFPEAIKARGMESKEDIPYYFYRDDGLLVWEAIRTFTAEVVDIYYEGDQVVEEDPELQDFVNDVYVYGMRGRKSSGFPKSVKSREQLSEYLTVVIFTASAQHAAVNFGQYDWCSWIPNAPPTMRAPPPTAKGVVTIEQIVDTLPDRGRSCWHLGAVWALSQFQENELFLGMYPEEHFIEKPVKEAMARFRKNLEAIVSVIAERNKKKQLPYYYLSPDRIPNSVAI
T1 sequence (P20292 1-161 partner): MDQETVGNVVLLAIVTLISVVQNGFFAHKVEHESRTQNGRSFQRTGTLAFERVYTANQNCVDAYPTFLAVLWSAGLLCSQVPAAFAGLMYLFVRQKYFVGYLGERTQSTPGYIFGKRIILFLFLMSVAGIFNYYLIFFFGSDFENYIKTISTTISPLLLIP
Assay: 5-LO product biosynthesis (RP-HPLC) in thapsigargin-stimulated human PMNL; also HEK293 cells expressing 5-LO and FLAP
Format: cell-based
Settings: read-out: IC50 (μM) [SEM]^*

`O=C(/C=C/c1ccc(O)c(O)c1)OCCc1ccccc1` [compound 3, CAPE] showed an IC50 of 1.11 µM.

— article PMC4365380, “Synthesis and Biological Activity of Arylspiroborate Salts Derived from Caffeic Acid Phenethyl Ester” (International Journal of Medicinal Chemistry, 2015)
